Tested on: HepaRG cells
Experiment: Kinetics of test compound disappearance in HepaRG cell culture (HPLC)
Format: in vitro ADME, human
Conditions: 30 µmol/L, 37°C; mean (95% confidence interval), four experiments
Protocol: Undifferentiated cryopreserved HepaRG cells (BioPredic International) were seeded in 12 or 24 well plates at 1.1 × 10^5 and 0.55 × 10^5 cells per well, respectively. Cells were cultured for 14 days in Williams E‐medium supplemented with 1% penicillin‐streptomycin (10 000 U/mL), 10% fœtal bovine serum (FBS), 50 mg/L hydrocortisone hemisuccinate, 5 mg/L insulin and 2 mmol/L Glutamax, and the medium was renewed every 2‐3 days. After 14 days, the culture medium was replaced by the same formulation as above supplemented with 2% dimethyl sulfoxide (DMSO) to induce differentiation. Cells were considered differentiated and ready for experiments after 14 days of differentiation (28 days after seeding).
Differentiated HepaRG cells, plated in 24 well plates, were washed with hepatocyte suspension medium (Williams E‐medium without phenol red, supplemented with 2 mmol/L Glutamax and […] HEPES) before addition of hepatocyte suspension medium (250 µL/well) containing (30 or 50 µmol/L) of the test compounds or their diluent. Cells were then incubated for 7.5, 15, 30, 60 or 90 minutes at 37°C after which the medium was removed.
In experiments where the test compounds incubated with HepaRG cells were to be measured, the cell layer was washed with 250 µL of hepatocyte suspension medium which was then pooled with the first medium. The mixture was then added to 250 µL of ice cold CH3OH:CH3CN (1:1, vol:vol) containing 10 µmol/L of phenethyl 3,4,5‐trimethoxycinnamate as an internal standard. The resulting solution was frozen at −80°C for 2 hour to precipitate any dissolved proteins, centrifuged at 1800g and the supernatant transferred to vials and stored at −20°C until HPLC analysis.
Figure 5 Kinetics of test compound disappearance in HepaRG cell culture. (A) HepaRG cells were incubated in 250 µL of hepatocyte suspension medium containing 30 µmol/L of test compounds for the indicated times at 37°C. Supernatants were removed and added to 250 µL of ice cold CH3OH:CH3CN (1:1 vol:vol) containing 10 µmol/L of phenethyl 3,4,5‐trimethoxycinnamate as an internal standard. The cell layer was washed with 250 µL of hepatocyte suspension medium and added to the above mixture. Samples were centrifuged at 1900g and the supernatants were collected for HPLC analysis as described in the Methods. Values are means ± SEM. (B) Calculated half‐lives of the test compounds in HepaRG cell cultures. Values are means (95% confidence interval). All data are from four independent experiments TEXT PRINTED IN THE PICTURE: (B) CAPE (2): Half-life (Minutes): 4.70 (4.42 - 5.02) | (B) 7: Half-life (Minutes): 6.42 (5.72 -7.31) | (B) 5: Half-life (Minutes): 3.71 (3.67-3.74) | (B) 8: Half-life (Minutes): 6.48 (6.01-7.04) | (B) 9: Half-life (Minutes): 4.38 (4.23 - 4.55) | (B) 10: Half-life (Minutes): 11.32 (10.21- 12.71)

| SMILES | Half-life in HepaRG cell cultures |
| --- | --- |
| O=C(/C=C/c1ccc(O)c(O)c1)CCCc1ccccc1 [compound 7] | 6.42 (5.72 -7.31) Minutes |
| O=C(/C=C/c1cc(O)ccc1O)CCc1ccccc1 [compound 8] | 6.48 (6.01-7.04) Minutes |

Other lines, results leading:

| Half-life in HepaRG cell cultures | SMILES |
| --- | --- |
| 4.70 (4.42 - 5.02) Minutes | O=C(/C=C/c1ccc(O)c(O)c1)OCCc1ccccc1 [CAPE (2), caffeic acid phenethyl ester, reference compound] |
| 3.71 (3.67-3.74) Minutes | O=C(/C=C/c1cc(O)ccc1O)OCCc1ccccc1 [compound 5] |
| 11.32 (10.21- 12.71) Minutes | COc1cc(/C=C/C(=O)CCc2ccccc2)cc(OC)c1O [compound 10, sinapic acid phenethyl ketone] |

Tested on: not listed separately
Experiment: Stability of inhibitory activity after incubation in whole blood
Format: in vitro ADME, human
Conditions: 3 μmol/L in whole blood up to 240 minutes before zymosan; LTB4
Protocol: Figure 4 Stability of the test compounds for the inhibition of the biosynthesis of 5‐LO products following incubation in plasma or in whole blood. (A) Test compounds were incubated (30 µmol/L) in human plasma for the indicated times at 37°C. Plasma (50 µL) containing the test compounds was then added to 450 µL of PMNL (10^7 cells/mL) which were then stimulated with 1 μmol/L of thapsigargin for 15 minutes at 37°C. The stimulation was then stopped, samples were processed, and 5‐LO products were measured using RP‐HPLC. (B) Whole blood was incubated in the presence of 3 μmol/L of test compounds or with their diluent (control, DMSO 0.1%) for the indicated times and was then stimulated with opsonized zymosan (4 mg/mL) for 30 minutes at 37°C. Blood was then centrifuged and plasma was collected and added to 1.2 mL of CH3OH:CH3CN (1:1). Samples were processed for analysis using RP‐HPLC for LTB4 quantification. All data are expressed as means ± SEM of at least three independent experiments. *Difference from time = 0, as determined using One‐way ANOVA with Dunnett's multiple comparison test (P < .05)

| SMILES | Stability of inhibitory activity after incubation in whole blood |
| --- | --- |
| O=C(/C=C/c1ccc(O)c(O)c1)OCCc1ccccc1 [CAPE (2), caffeic acid phenethyl ester, reference compound] | complete loss of inhibitory activity after 240 minutes |
| O=C(/C=C/c1ccc(O)c(O)c1)CCCc1ccccc1 [compound 7] | complete loss of inhibitory activity after 240 minutes |
| COc1cc(/C=C/C(=O)CCc2ccccc2)cc(OC)c1O [compound 10, sinapic acid phenethyl ketone] | near complete retention of inhibitory activity |
